Values of other authors in PubChem BioAssay AID1259409 (Chemical Carcinogenesis Research Information System (CCRIS), 2018).

Test system: rodent chemically induced tumor inhibition, incidence and multiplicity
Test: CCRIS tumor inhibitor studies

CC/C(=C(\c1ccccc1)c1ccc(OCCN(C)C)cc1)c1ccccc1
tumour outcome (control, treated, inhibition, significance) (Carcinogen: 1,2-DIMETHYLHYDRAZINE HYDROCHLORIDE, 306-37-6, Dose [Inhibitor]: 0, 0.5 UG/G/D IN DIET FOR 28 WK (STUDY DURATION: 28 WK), Route [Inhibitor]: ORAL, Species: RAT, Strain/Sex: SPRAGUE-DAWLEY/FEMALE, Target Tissue: Type of Lesion: COLON: TUMOR, Dose [Carcinogen]: 20 MG/KG BW 1/WK FOR 28 WK, Promoter: NONE USED): 26/36 (72%), 17/33 (52%), 28%, p<0.001 | tumour outcome (control, treated, inhibition, significance) (Carcinogen: 3-METHYLCHOLANTHRENE, 56-49-5, Dose [Inhibitor]: 0, 50 UG/KG FOR DURATION OF STUDY (STUDY DURATION: LIFETIME), Route [Inhibitor]: SUBCUTANEOUS, Species: MOUSE, Strain/Sex: SWISS/FEMALE, Target Tissue: Type of Lesion: CERVIX: CARCINOMA, Dose [Carcinogen]: CARCINOGEN AND BEESWAX (1:3) IMPREGNATED THREAD INSERTED IN THE CANAL OF THE UTERINE CERVIX, Promoter: NONE USED): 60%, 30%, 50%, p<0.01 | tumour outcome (control, treated, inhibition, significance) (Carcinogen: 3-METHYLCHOLANTHRENE, 56-49-5, Dose [Inhibitor]: 0, 50 UG/KG GIVEN TO OOPHERECTOMIZED MICE 3/WK FOR DURATION OF STUDY (STUDY DURATION: LIFETIME), Route [Inhibitor]: SUBCUTANEOUS, Species: MOUSE, Strain/Sex: SWISS/FEMALE, Target Tissue: Type of Lesion: CERVIX: CARCINOMA, Dose [Carcinogen]: CARCINOGEN AND BEESWAX (1:3) IMPREGNATED THREAD INSERTED IN THE CANAL OF THE UTERINE CERVIX, Promoter: NONE USED): 62%, 27%, 56%, p<0.01 | tumour outcome (control, treated, inhibition, significance) (Carcinogen: 7,12-DIMETHYLBENZ[A]ANTHRACENE (57-97-6), Dose [Inhibitor]: 0.125 MG/KG DIET FOR 17 WKS (STUDY DURATION: 17 WKS), Route [Inhibitor]: DIET, Species: RAT, Strain/Sex: SPRAGUE-DAWLEY/FEMALE (20,18)/(20,18), Target Tissue: Type of Lesion: MAMMARY, Dose [Carcinogen]: 12.5 MG ONCE 1 WK AFTER START OF DIETS (STUDY DURATION: 17 WKS)): 95%, 73%, 23%, p=0.015 | tumour outcome (control, treated, inhibition, significance) (Carcinogen: 7,12-DIMETHYLBENZ[A]ANTHRACENE (DMBA) (57-97-6), Dose [Inhibitor]: 50 MG/KG/D FOR 37 WK (STUDY DURATION: 37 WK), Route [Inhibitor]: ORAL GAVAGE, Species: MOUSE, Strain/Sex: SENCAR/FEMALE, Target Tissue: Type of Lesion: MAMMARY: CARCINOMA, Dose [Carcinogen]: 20 UG/D FOR 6 WKS (STUDY DURATION: 37 WKS), Promoter: MEDROXYPROGESTERONE ACETATE (71-58-9)): 10/21 (48%); 0%, 100%, p=0.0004 | tumour outcome (control, treated, inhibition, significance) (Carcinogen: 7,12-DIMETHYLBENZ[A]ANTHRACENE (DMBA) [57-97-6], Dose [Inhibitor]: 50 MG/KG/D FOR 52 WK (STUDY DURATION: 52 WK), Route [Inhibitor]: ORAL GAVAGE, Species: MOUSE, Strain/Sex: SENCAR/FEMALE, Target Tissue: Type of Lesion: MAMMARY: CARCINOMA, Dose [Carcinogen]: 20 UG/D FOR 6 WKS, Promoter: MEDROXYPROGESTERONE ACETATE (71-58-9)): 13/23 (57%); 0/20 (0%), 100%, p=0.00003 | tumour outcome (control, treated, inhibition, significance) (Carcinogen: 17 BETA-ESTRADIOL, 50-28-2, Dose [Inhibitor]: 25 MG PELLETS CONTAINING 90% TAMOXIFEN ADMINISTERED ONCE AT BEGINNING OF STUDY AND ONCE AT 3.5 MO, ADMINISTERED CONCURRE, Route [Inhibitor]: SUBCUTANEOUS IMPLANT, Species: HAMSTER, Strain/Sex: SYRIAN/MALE, Target Tissue: Type of Lesion: KIDNEY: RENAL CARCINOMA, Dose [Carcinogen]: 25 MG PELLETS CONTAINING 90% ESTRADIOL ONCE AT BEGINNING OF STUDY AND ONCE AT 3.5 MO, Promoter: NONE USED): 3/3 (100%), 2/8 (25%), 75%, not calculated | tumour outcome (control, treated, inhibition, significance) (Carcinogen: ETHYL METHANESULFONATE, 62-50-0, Dose [Inhibitor]: 0, 50 MG/KG 1/WK FOR 4 WK BEGINNING POST CARCINOGEN TREATMENT (STUDY DURATION: 30 WK), Route [Inhibitor]: SUBCUTANEOUS, Species: RAT, Strain/Sex: WISTAR/FEMALE, Target Tissue: Type of Lesion: MAMMARY GLAND: CARCINOMA, Dose [Carcinogen]: 0.01 MOLAR SOLUTION IN DRINKING WATER FOR 12 WK, Promoter: NONE USED): 100%, 100%, 0%, not significant | tumour outcome (control, treated, inhibition, significance) (Carcinogen: ETHYL METHANESULFONATE, 62-50-0, Dose [Inhibitor]: 0, 50 MG/KG 1/WK FOR 4 WK CONCOMITANTLY WITH CARCINOGEN TREATMENT (STUDY DURATION: 30 WK), Route [Inhibitor]: SUBCUTANEOUS, Species: RAT, Strain/Sex: WISTAR/FEMALE, Target Tissue: Type of Lesion: MAMMARY GLAND: CARCINOMA, Dose [Carcinogen]: 0.01 MOLAR SOLUTION IN DRINKING WATER FOR 12 WK, Promoter: NONE USED): 100%, 50%, 50%, p<0.01 | tumour outcome (control, treated, inhibition, significance) (Carcinogen: ETHYLNITROSOUREA [759-73-9], Dose [Inhibitor]: 420 MG/K DIET FOR 60 WK (STUDY DURATION: 60 WK), Route [Inhibitor]: DIET, Species: MOUSE, Strain/Sex: B6C3F1/MALE (?,44)/(?,47), Target Tissue: Type of Lesion: LIVER: HEPATOCELLULAR CARCINOMA, Dose [Carcinogen]: 120 UG/KG ONCE): 11/44 (25%), 2/47 (4%), 84%, p<0.001 | tumour outcome (control, treated, inhibition, significance) (Carcinogen: N-ETHYL-N'-NITRO-N-NITROSOGUANADINE, 4245-77-6, Dose [Inhibitor]: 0, 70 MG/KG BW IN CHOLESTEROL IMPLANTED 1 WK POST CARCINOGEN DOSE, IMPLANTS REPLACED AT 6 TO 8 WK INTERVALS FOR THE DURA, Route [Inhibitor]: SUBCUTANEOUS IMPLANT, Species: RAT, Strain/Sex: DONRYU/FEMALE, Target Tissue: Type of Lesion: UTERUS: ADENOCARCINOMA, Dose [Carcinogen]: 20 MG/KG BW ONCE, Promoter: NONE USED): 9/29 (31%), 0/30 (0%), 100%, not calculated | tumour outcome (control, treated, inhibition, significance) (Carcinogen: N-ETHYL-N'-NITRO-N-NITROSOGUANADINE, 4245-77-6, Dose [Inhibitor]: 0, 70 MG/KG BW IN CHOLESTEROL IMPLANTED 20 WKS POST CARCINOGEN DOSE, IMPLANTS REPLACED AT 6 TO 8 WK INTERVALS FOR DURATI, Route [Inhibitor]: SUBCUTANEOUS IMPLANT, Species: RAT, Strain/Sex: DONYRU/FEMALE, Target Tissue: Type of Lesion: UTERUS: ADENOCARCINOMA, Dose [Carcinogen]: 20 MG/KG BW ONCE, Promoter: NONE USED): 9/29 (31%), 0/29 (0%), 100%, not calculated | tumour outcome (control, treated, inhibition, significance) (Carcinogen: N-METHYL-N'-NITROSOUREA, 684-93-5, Dose [Inhibitor]: 0, 0.125 MG/KG IN DIET FOR DURATION OF STUDY BEGINNING 60 D PRIOR TO CARCINOGEN DOSE (STUDY DURATION: 240 D), Route [Inhibitor]: ORAL, Species: RAT, Strain/Sex: SPRAGUE-DAWLEY/FEMALE, Target Tissue: Type of Lesion: MAMMARY GLAND: TUMOR, Dose [Carcinogen]: 50 MG/KG BW ONCE, Promoter: NONE USED): 68%, 62%, 9%, not significant | tumour outcome (control, treated, inhibition, significance) (Carcinogen: N-METHYL-N'-NITROSOUREA, 684-93-5, Dose [Inhibitor]: 0, 0.25 MG/KG IN DIET FOR DURATION OF STUDY BEGINNING 60 D PRIOR TO CARCINOGEN DOSE (STUDY DURATION: 240 D), Route [Inhibitor]: ORAL, Species: RAT, Strain/Sex: SPRAGUE-DAWLEY/FEMALE, Target Tissue: Type of Lesion: MAMMARY GLAND: TUMOR, Dose [Carcinogen]: 50 MG/KG BW ONCE, Promoter: NONE USED): 80%, 25%, 69%, p<0.005 | tumour outcome (control, treated, inhibition, significance) (Carcinogen: N-METHYL-N-NITROSOUREA, 684-93-5, Dose [Inhibitor]: 0, 0.2 MG/KG IN DIET FOR THE DURATION OF STUDY BEGINNING 7 D PRIOR TO CARCINOGEN DOSE (STUDY DURATION: 187 D), Route [Inhibitor]: ORAL, Species: RAT, Strain/Sex: SPRAGUE-DAWLEY/FEMALE, Target Tissue: Type of Lesion: MAMMARY GLAND: TUMOR, Dose [Carcinogen]: 50 MG/KG BW ONCE, Promoter: NONE USED): 100%, 100%, 0%, not significant
